According to patent publication US12691088B2, “Reactivation of mTOR in acute kidney injury (AKI)” (The Trustees of Columbia University in the City of New York, priority 2021, dated 2026):
Read-outs that look alike come from different tables or passages of the source.

Tests used:
mTORC1 [1] = conditions: cited from earlier work; for mTORC1 activation (phosphorylation of S6K1 at threonine 389): mouse embryonic fibroblast (MEF) cells
[2] = test system: ischemia reperfusion (I/R)-induced iAKI; assay: functional screening of amino acids in ischemia reperfusion (I/R)-induced iAKI; format: in vivo, wild type C57B/L6 mice; conditions: 48 hours reperfusion after 25 min ischemia, 75 mg/kg i.p. 1 hour prior and every 8 hours afterwards, vs vehicle; for BUN / sCr: n=5-6
Method: FIGS. 4A-F show functional screening of amino acids for the regulation of ischemia reperfusion (I/R)-induced iAKI. Ischemia was incurred by clamping renal artery of the left kidney for 25 min while the right kidney was removed prior to clamping. Renal functions were analyzed by quantitating serum creatinine (sCr) and blood urea nitrogen (BUN) after the reperfusion for 48 hours. FIGS. 4[…]) or L-valine (Val; 75 mg/kg) were intraperitoneally administered into wild type C57B/L6 mice 1 hour prior to the induction of ischemic and every 8 hours afterwards.

mTORC1 [3] = conditions: human embryonic kidney 293A (HEK293A) cells; cited from earlier work
[4] = test system: rhabdomyolysis (Rh)-induced iAKI; assay: functional screening of amino acids in rhabdomyolysis (Rh)-induced iAKI (50% glycerol i.m.); format: in vivo, wild type C57BL6 mice
Method: FIGS. 2A-L show a functional screening of amino acids for the regulation of rhabdomyolysis (Rh)-induced iAKI. Rh was incurred by intramuscularly injecting 50% glycerol (6 ml/kg), and renal functions were analyzed by quantitating serum creatinine (sCr) and blood urea nitrogen (BUN) after 24, 48 and 168 hours. […] or glutamine (75 mg/kg) were intraperitoneally administered into wild type C57BL6 mice at 1 hour prior to injury incurrence. It was observed that sCr and BUN were reduced at 24 hours (FIGS. 2A, B) in isoleucine-treated rhabdomyolysis mice, but were increased at 48 hours in leucine-treated mice (FIGS. 2C, D) when compared with vehicle (Veh)-treated counterparts (n=7). […] FIG. 2[…], or histidine were intraperitoneally administered into wild type C57BL6 mice at 1 hour prior to injury incurrence and then every 8 hours thereafter. It was observed that threonine reduces sCr and BUN at 24 h and histidine reduces sCr and BUN at 24 h and 48 h when compared with Veh Rh mice. Therefore, threonine and histidine protected from Rh-induced iAKI. […] FIGS. 3A-F show a functional screening of […] or L-valine for the regulation of rhabdomyolysis (Rh)-induced iAKI. Rh was incurred by intramuscularly injecting 50% glycerol (6 ml/kg), and renal functions were analyzed by quantitating serum creatinine (sCr) and blood urea nitrogen (BUN) after 24, 48 and 168 hours. FIGS. 3[…] or L-valine (75 mg/kg) were intraperitoneally administered into wild type C57BL6 mice at 1 hour prior to injury incurrence and then every 8 hours for a total of 5 doses.

[5] = test system: ischemic acute kidney injury (AKI); assay: ischemia/reperfusion (IR) ischemic AKI in wild type mice, L-leucine pretreatment; format: in vivo; conditions: WT IR AKI mice; 75 mg/kg i.p. 1 hour prior; 25 min ischemia, 48 hours reperfusion; vs vehicle; n=4-7
Method: (§1) L-leucine (75 mg/kg) was intraperitoneally administered into wild type (WT) and nephron-specific Spns1 knockout (Spns1f/f/Six2-Cre) mice 1 hour prior to initiating ischemic AKI. The left kidney was then removed. Ischemia/reperfusion (IR) was performed by clamping the renal artery of the right kidney for 25 min of ischemia followed by 48 hours of reperfusion.

[6] = test system: ischemic acute kidney injury (AKI); assay: ischemia/reperfusion (IR) ischemic AKI in nephron-specific Spns1 knockout mice, L-leucine pretreatment; format: in vivo; conditions: Spns1f/f/Six2-Cre IR AKI mice; 75 mg/kg i.p. 1 hour prior; 25 min ischemia, 48 hours reperfusion; vs vehicle; n=4-7
Method: as §1

[7] = 24 hours post Rh, 75 mg/kg i.p. 1 hour prior to injury then every 8 hours, total 5 doses, vs vehicle, n=7 (FIG. 3A)
[8] = 24 hours post Rh, 75 mg/kg i.p. 1 hour prior to injury then every 8 hours, total 5 doses, vs vehicle, n=7 (FIG. 3B)
[9] = 24 h post Rh, i.p. 1 hour prior to injury and every 8 hours thereafter, vs Veh Rh mice (FIG. 2G)
[10] = 24 h post Rh, i.p. 1 hour prior to injury and every 8 hours thereafter, vs Veh Rh mice (FIG. 2H)

Row | SMILES | mTORC1 activation (phosphorylation of S6K1 at threonine 389) (mTORC1 [1]) | mTORC1 activation (phosphorylation of S6K1 at threonine 389) (mTORC1 [3]) | BUN [2] | sCr [2] | other results
1 | N[C@@H](CS)C(=O)O [Cysteine] | activates | – | – | – | –
2 | C[C@H](N)C(=O)O [L-alanine] | activate | activate | – | – | impacts on I/R-AKI (sCr and BUN) [2]: Neither L-serine (FIGS. 4A, B), L-alanine (FIGS. 4A, B) nor L-methionine (FIGS. 4C, D) had significant impacts
3 | N=C(N)NCCC[C@H](N)C(=O)O [L-arginine] | activate | activate | elevated | elevated | sCr [4, 7]: reduced; BUN [4, 8]: reduced
4 | N[C@@H](CC(=O)O)C(=O)O [L-aspartic acid] | – | – | reduced | reduced | –
5 | NC(=O)CC[C@H](N)C(=O)O [L-glutamine] | activate | activate | reduced | reduced | effects on Rh-induced AKI (sCr and BUN) ([4]; 24, 48 and 168 hours post Rh, 75 mg/kg i.p. 1 hour prior to injury, vs vehicle (FIGS. 2A-F)): no significant effects
6 | N[C@@H](Cc1c[nH]cn1)C(=O)O [L-histidine] | activate | activate | reduced | reduced | sCr [4, 9]: reduces; BUN [4, 10]: reduces; sCr ([4]; 48 h post Rh, i.p. 1 hour prior to injury and every 8 hours thereafter, vs Veh Rh mice (FIG. 2I)): reduces; BUN ([4]; 48 h post Rh, i.p. 1 hour prior to injury and every 8 hours thereafter, vs Veh Rh mice (FIG. 2J)): reduces
7 | CC[C@H](C)[C@H](N)C(=O)O [L-isoleucine] | – | – | reduced | reduced | sCr ([4]; 24 hours post Rh, 75 mg/kg i.p. 1 hour prior to injury, vs vehicle, n=7 (FIG. 2A)): reduced; BUN ([4]; 24 hours post Rh, 75 mg/kg i.p. 1 hour prior to injury, vs vehicle, n=7 (FIG. 2B)): reduced
8 | CC(C)C[C@H](N)C(=O)O [L-leucine] | activate | activate | reduced | reduced | Serum creatinine (sCr) [5]: markedly reduced; blood urea nitrogen (BUN) [5]: markedly reduced; Serum creatinine (sCr) [6]: markedly reduced; blood urea nitrogen (BUN) [6]: markedly reduced; sCr ([4]; 48 hours post Rh, 75 mg/kg i.p. 1 hour prior to injury, vs vehicle, n=7 (FIG. 2C)): increased; BUN ([4]; 48 hours post Rh, 75 mg/kg i.p. 1 hour prior to injury, vs vehicle, n=7 (FIG. 2D)): increased
9 | CSCC[C@H](N)C(=O)O [L-methionine] | activate | activate | – | – | impacts on I/R-AKI (sCr and BUN) [2]: Neither L-serine (FIGS. 4A, B), L-alanine (FIGS. 4A, B) nor L-methionine (FIGS. 4C, D) had significant impacts
10 | N[C@@H](CO)C(=O)O [L-serine] | activate | activate | – | – | impacts on I/R-AKI (sCr and BUN) [2]: Neither L-serine (FIGS. 4A, B), L-alanine (FIGS. 4A, B) nor L-methionine (FIGS. 4C, D) had significant impacts
11 | C[C@@H](O)[C@H](N)C(=O)O [L-threonine] | activate | activate | reduced | reduced | sCr [4, 9]: reduces; BUN [4, 10]: reduces
12 | CC(C)[C@H](N)C(=O)O [L-valine] | activate | activate | elevated | elevated | sCr [4, 7]: reduced; BUN [4, 8]: reduced; sCr ([4]; 48 hours post Rh, 75 mg/kg i.p. 1 hour prior to injury then every 8 hours, total 5 doses, vs vehicle, n=7 (FIG. 3C)): reduced; BUN ([4]; 48 hours post Rh, 75 mg/kg i.p. 1 hour prior to injury then every 8 hours, total 5 doses, vs vehicle, n=7 (FIG. 3D)): reduced
13 | NC(=O)C[C@H](N)C(=O)O [asparagine] | activate | activate | – | – | –
14 | C[C@H]1CCC/C=C/[C@@H]2C[C@H](O)C[C@H]2[C@H](O)/C=C/C(=O)O1 [brefeldin A, reference compound] | – | – | – | – | lysosomal localization of mTORC1 induced by glutamine and asparagine (mTORC1 [1]; MEFs): impairs; glutamine and asparagine-induced mTORC1 activation (mTORC1 [1]; wild type and Rag depleted MEFs): inhibits
